Assay results from patent publication US20050176826A1, “Use of asc-1 inhibitors to treat neurological and psychiatric disorders” (H. Lundbeck A/S, priority 2002, published 2005).

Key:
[1] = target: noradrenaline (NA) uptake (Rattus norvegicus, UniProt Q63380); assay: [3H]noradrenalin uptake into rat cortical synaptosomes; type: biochemical; conditions: read-out: Ki, block of noradrenaline transport
Protocol: (§1) Inhibition of serotonin (5-HT), dopamine (DA) and noradrenaline (NA) uptake in vitro was measured in rat brain synaptosomes using a modification of a previously described protocol (Bøgesø et al., J Med Chem 1985, 28, 1817-1828). In brief, tritium labelled amines were used to measure uptake into synaptosomes from whole rat brain (excluding cerebellum) ([^3H]serotonin), rat striatal synaptosomes ([^3H]dopamine) or into rat cortical synaptosomes [^3H]noradrenalin. The dissected rat brain regions were homogenized in 0.40 M sucrose supplemented with 1 mM nialamid and centrifuged at 1000×g for 10 min. The supernatants were further centrifuged for 30 min at 20.000×g, 4° C. and resuspended in Krebs-Ringer buffer, pH 7.4 supplemented with 0.2 g/l ascorbic acid. Test compounds and membranes were added in 96 well plates and the incubation was started by adding either 10 nM [^3H]serotonin, 12.5 nM [^3H]dopamine or 10 nM [^3H]noradrenalin for 15 min at 37° C. except for [^3 H]dopamine uptake (5 min at 20° C.). Non-specific uptake was defined as uptake in the presence of 10 μM citalopram, 100 μM benttropin or 20 μM talsupram, respectively and accounted for 5-10% of total uptake. Samples were filtered over Whatman GF/C filters and the IC50's were estimated using non-linear regression analysis from at least 8 points dose-response curves with triplicate determinations.

serotonin (5-HT) uptake = target: T1, serotonin (5-HT) uptake (Rattus norvegicus, UniProt P31652); assay: [3H]serotonin uptake into rat brain synaptosomes; type: biochemical
T1 construct: from tissue; host or cells: synaptosomes from whole rat brain excluding cerebellum
T1 sequence (P31652 whole entry): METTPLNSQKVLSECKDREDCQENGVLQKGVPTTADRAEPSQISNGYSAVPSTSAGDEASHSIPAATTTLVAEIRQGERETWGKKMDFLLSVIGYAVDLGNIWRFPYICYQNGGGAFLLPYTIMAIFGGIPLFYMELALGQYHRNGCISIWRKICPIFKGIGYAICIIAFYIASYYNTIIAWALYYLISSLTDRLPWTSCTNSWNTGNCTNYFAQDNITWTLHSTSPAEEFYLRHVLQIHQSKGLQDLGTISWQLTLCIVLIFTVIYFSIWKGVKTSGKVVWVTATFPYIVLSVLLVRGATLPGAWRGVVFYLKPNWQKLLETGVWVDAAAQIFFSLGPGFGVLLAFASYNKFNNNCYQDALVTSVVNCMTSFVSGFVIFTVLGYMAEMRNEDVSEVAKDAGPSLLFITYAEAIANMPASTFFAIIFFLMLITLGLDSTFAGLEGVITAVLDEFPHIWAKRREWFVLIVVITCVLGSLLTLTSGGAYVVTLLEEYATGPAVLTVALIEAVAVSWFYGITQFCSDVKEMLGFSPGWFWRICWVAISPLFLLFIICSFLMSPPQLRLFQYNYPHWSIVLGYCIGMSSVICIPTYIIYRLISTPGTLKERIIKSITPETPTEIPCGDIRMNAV
Protocol: as §1

dopamine (DA) uptake = target: T2, dopamine (DA) uptake (Rattus norvegicus, UniProt P23977); assay: [3H]dopamine uptake into rat striatal synaptosomes; type: biochemical
T2 construct: from tissue; host or cells: rat striatal synaptosomes
T2 sequence (P23977 whole entry): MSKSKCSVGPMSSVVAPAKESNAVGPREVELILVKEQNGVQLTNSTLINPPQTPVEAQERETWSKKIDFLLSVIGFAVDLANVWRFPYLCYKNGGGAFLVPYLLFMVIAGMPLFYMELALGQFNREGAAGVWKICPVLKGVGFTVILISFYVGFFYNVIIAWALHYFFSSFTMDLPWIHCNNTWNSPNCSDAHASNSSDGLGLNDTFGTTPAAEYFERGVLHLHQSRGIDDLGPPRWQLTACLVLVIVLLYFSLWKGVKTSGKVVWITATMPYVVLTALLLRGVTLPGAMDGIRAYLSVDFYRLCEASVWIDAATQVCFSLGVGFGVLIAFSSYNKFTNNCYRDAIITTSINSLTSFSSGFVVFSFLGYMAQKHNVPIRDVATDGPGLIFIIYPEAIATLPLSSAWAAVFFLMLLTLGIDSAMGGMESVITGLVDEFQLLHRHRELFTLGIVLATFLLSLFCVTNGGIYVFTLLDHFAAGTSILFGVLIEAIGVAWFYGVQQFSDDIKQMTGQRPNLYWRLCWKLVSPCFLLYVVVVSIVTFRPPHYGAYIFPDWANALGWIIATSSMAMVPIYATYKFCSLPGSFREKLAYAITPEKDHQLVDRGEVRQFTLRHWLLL
Protocol: as §1

human asc-1 = target: T3, human asc-1 (Homo sapiens, UniProt Q9NS82); assay: [3H]D-serine uptake into HEK293 cells expressing human asc-1; type: cell-based
T3 construct: expressed in transfected cells; host or cells: HEK293 (ATCC CRL 1573), transient, vector pCI/neo
T3 sequence (Q9NS82 1-523): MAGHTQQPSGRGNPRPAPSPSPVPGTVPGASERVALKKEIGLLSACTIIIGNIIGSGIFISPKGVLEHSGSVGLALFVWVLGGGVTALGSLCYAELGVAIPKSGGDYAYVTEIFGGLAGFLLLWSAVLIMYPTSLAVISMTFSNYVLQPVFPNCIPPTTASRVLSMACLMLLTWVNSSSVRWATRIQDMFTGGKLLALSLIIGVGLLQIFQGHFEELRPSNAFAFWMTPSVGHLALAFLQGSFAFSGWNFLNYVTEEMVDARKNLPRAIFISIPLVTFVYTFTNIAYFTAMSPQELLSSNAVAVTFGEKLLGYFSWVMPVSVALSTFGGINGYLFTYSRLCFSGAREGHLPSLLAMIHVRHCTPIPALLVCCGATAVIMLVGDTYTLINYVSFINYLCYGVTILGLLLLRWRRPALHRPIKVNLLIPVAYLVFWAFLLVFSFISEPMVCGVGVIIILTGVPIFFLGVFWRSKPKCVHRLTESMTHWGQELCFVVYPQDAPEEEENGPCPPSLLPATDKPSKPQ
Protocol: Uptake was determined 2-4 days after the transfection.
Into cortical membranes: Cortex from male Wistar rats (150-200 g) was homogenized in 0.40 M sucrose and centrifuged at 1000×g for 10 min. […] Test compounds and tissue (1 mg orig. tissue/well) were added to 96 well plates and incubated with [^3H]-D-serine (specific activity=26.8 Ci/mmol, PerkinElmer, Cambridge, U.K.) (100 nM final concentration) for 5 min at 25° C. Samples were filtered on Unifilter GF/B glass fiber (Packard Biosciences, Meriden, Conn., USA) and washed with 3×0.25 mL assay buffer. Measurements of [^3H]-D-serine uptake into whole HEK293 cells expressing human asc-1 were performed in 96 well plates with similar conditions except that the cells were incubated for 15 min with radioligand and washed by dipping twice in cold assay buffer following incubation with radioligand. Accumulated radioactivity was extracted from the cells by adding 200 μL scintillation fluid/well (Ultima Gold, Packard Biosciences) and the plates were counted in a Microplates Scintillation Counter (Packard Biosciences). The D-serine uptake in samples containing test compounds was compared to controls without added compound or controls where transport via the asc-1 was inhibited by addition of e.g. 30 mM L-alanine.

[2] = target: T4, D-serine uptake in rat cerebellar synaptosomes (Rattus norvegicus, UniProt P63116); assay: [3H]D-serine uptake in rat cerebellar synaptosomes; type: biochemical
T4 construct: from tissue; host or cells: rat cerebellar synaptosomes
T4 sequence (P63116 1-530): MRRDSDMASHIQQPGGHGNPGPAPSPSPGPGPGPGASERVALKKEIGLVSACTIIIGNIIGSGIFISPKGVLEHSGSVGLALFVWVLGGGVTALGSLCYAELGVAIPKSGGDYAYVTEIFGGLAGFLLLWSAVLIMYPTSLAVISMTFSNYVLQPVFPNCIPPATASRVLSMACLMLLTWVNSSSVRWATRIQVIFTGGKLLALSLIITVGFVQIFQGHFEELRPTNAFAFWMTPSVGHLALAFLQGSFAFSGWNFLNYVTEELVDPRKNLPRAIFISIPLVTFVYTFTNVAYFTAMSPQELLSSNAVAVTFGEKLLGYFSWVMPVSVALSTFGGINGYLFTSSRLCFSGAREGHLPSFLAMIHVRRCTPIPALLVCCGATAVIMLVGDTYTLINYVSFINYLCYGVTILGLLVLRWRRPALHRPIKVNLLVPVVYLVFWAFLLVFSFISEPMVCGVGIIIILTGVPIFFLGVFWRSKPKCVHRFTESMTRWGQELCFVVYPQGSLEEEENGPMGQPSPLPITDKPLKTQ
T4 sequence (Q794F9 1-527 partner): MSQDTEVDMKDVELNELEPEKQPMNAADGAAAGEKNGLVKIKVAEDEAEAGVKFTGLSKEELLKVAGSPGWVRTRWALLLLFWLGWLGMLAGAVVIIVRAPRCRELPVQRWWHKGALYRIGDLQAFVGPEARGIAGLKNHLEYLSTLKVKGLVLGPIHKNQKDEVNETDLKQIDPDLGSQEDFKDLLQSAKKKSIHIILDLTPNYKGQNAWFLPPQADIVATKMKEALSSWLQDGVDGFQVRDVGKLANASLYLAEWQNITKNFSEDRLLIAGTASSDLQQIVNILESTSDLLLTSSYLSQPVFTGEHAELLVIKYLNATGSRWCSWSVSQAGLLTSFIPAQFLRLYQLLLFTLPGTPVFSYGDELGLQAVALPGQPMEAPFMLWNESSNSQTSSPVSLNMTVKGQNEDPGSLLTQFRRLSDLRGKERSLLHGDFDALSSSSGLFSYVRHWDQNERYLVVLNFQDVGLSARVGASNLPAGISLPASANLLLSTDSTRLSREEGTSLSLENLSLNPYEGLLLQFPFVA

System A transporters = assay: [3H]AIB transport into cultured rat hepatocytes (Bracy et al.); type: cell-based; conditions: corresponding to 81% inhibition at 5 mM

noradrenaline (NA) uptake, sequence (Q63380 1-617): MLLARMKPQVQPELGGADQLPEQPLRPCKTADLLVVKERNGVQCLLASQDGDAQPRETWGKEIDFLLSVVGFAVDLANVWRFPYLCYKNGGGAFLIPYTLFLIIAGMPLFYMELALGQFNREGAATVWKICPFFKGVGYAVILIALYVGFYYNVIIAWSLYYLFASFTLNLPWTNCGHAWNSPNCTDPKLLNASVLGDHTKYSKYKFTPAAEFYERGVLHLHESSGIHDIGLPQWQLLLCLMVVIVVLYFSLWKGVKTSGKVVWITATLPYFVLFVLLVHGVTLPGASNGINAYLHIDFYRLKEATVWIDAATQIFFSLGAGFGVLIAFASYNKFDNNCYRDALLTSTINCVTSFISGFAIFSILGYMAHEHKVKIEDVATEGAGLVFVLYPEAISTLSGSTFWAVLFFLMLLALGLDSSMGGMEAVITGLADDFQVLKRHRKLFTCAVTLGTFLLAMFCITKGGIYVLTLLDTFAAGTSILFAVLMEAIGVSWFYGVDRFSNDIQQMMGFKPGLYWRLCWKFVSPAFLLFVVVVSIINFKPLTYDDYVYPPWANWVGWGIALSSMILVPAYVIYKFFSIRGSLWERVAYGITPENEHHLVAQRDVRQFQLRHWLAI

## CSCC(N)C(=O)O (stereo in doubt) [(S)-methyl-L-cysteine]
[1]
  Ki: > 1000 µM
Serotonin (5-HT) uptake
  Ki: > 1000 µM
Dopamine (DA) uptake
  Ki: > 1000 µM
Human asc-1
  Ki: 62 ± 15 µM
[2]
  inhibition of D-serine uptake in rat cerebellar synaptosomes (in words): potent and selective inhibitor
System A transporters
  IC50: ~1200 µM
